{"source": "paper PMC9107566", "about": "“Metabolic engineering of Escherichia coli for efficient degradation of 4-fluorophenol” (AMB Express, 2022)", "target": "T1, FpdA2 (Arthrobacter sp. IF1, UniProt D1MYT1)", "T1 construct": "co-expressed with flavin reductase FpdB, FpdC and FpdD; not purified", "T1 sequence (D1MYT1 1-535)": "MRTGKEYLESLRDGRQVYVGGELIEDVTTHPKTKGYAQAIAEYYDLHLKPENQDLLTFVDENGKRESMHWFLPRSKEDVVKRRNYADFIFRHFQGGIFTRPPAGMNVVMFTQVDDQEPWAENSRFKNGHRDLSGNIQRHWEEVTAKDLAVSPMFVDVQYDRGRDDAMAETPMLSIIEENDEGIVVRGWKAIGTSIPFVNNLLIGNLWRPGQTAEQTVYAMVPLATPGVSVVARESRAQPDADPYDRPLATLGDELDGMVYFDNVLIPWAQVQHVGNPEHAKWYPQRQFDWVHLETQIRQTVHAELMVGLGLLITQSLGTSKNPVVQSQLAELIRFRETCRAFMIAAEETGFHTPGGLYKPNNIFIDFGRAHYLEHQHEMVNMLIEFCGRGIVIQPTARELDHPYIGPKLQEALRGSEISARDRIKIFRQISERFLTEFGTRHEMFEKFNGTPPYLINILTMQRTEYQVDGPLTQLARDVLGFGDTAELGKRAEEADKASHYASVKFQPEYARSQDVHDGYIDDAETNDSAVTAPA", "experiment": "whole-cell degradation by BL-fpd, HPLC of substrate", "type": "cell-based", "conditions": "2 mM substrate, 10 uM FAD added, 37 C, 3 h; induced cells co-expressing FpdB, FpdC, FpdD; empty-vector strain BL-control as control", "data": [{"smiles": "Oc1ccc(Br)cc1", "note": "[4-bromophenol]", "values": [{"measurement": "whole-cell degradation by BL-fpd, HPLC of substrate", "value": "FpdA2 showed the highest activity towards 4-bromophenol among the substrates tested"}]}]}
